Ends that are not written are not given here.
What was measured:
[1] = Metabolic stability in CD-1 mouse liver microsomes; format: in vitro ADME
[2] = Metabolic stability in beagle dog liver microsomes; format: in vitro ADME; conditions: for CLint scaled: dog, microsomes, Beagle dog liver microsomes 0.5 mg protein/mL, 2 μM
[3] = Metabolic stability in cryopreserved CD-1 mouse hepatocytes; format: in vitro ADME; conditions: CD-1 mouse hepatocytes 0.5 million cells/mL; for CLint scaled: mouse, hepatocytes, 2 μM
[4] = Metabolic stability in cryopreserved beagle dog hepatocytes; format: in vitro ADME; conditions: Beagle dog hepatocytes 0.5 million cells/mL; for CLint scaled: dog, hepatocytes, 2 μM
[5] = Metabolic stability in cryopreserved cynomolgus monkey hepatocytes; format: in vitro ADME; conditions: Cynomolgus monkey hepatocytes 0.5 million cells/mL
CYP1A2 = CYP1A2 induction (mRNA expression) in single-donor human hepatocytes; format: in vitro ADME
Description: RNA isolation and quantification: E-Z 96 Total RNA Kit (Omega Bio-tek, Catalog No. R1034-02) was used for RNA isolation and Quant-iT RNA assay kit (ThermoFisher, Catalog No. Q33140) was used for RNA quantification. The plates were removed from a −80 °C freezer and equilibrated to room temperature. RNA was extracted using the manufacturer’s recommended protocol. Eighty-one microliters of 100% ethanol were added into each well containing 150 µL of lysed sample to make a final ethanol concentration at 35%.
cDNA generation: For cDNA generation, a High-Capacity cDNA Reverse Transcription Kit (Applied Biosystems, Catalog No. 4319983) and QuantStudio 3 PCR system (Applied Biosystems) were used. In this step, 2X Reverse Transcription Master Mix was prepared using the contents of the kit. Then, 10 µL of total RNA was added to 10 µL of 2X Reverse Transcription Master Mix in a microplate and the plate was sealed. This plate was then run in a thermocycler to generate cDNA.
Real time PCR: SsoAdvanced Universal SYBR® Green Supermix (BIO-RAD, Catalog No. 172-5270) and the QuantStudio 3 Real-Time PCR system (Applied Biosystems) were used to perform real-time PCR on the generated cDNA. In this step, a PCR mix was prepared using PCR Supermix, SYBR® primers for the targeted genes, and nuclease-free water. Two microliters of ten-fold diluted cDNA samples (5 µL of cDNA into 45 μL of nuclease-free water) were added to 8 µL of PCR Mix in a microplate and sealed. This plate was then run through the Real-Time PCR system to generate the mRNA expression data.
• Human GAPDH • F: […] • R: […] • Human CYP1A2 • Unique Assay ID: qHsaCID0015160 • Chromosome Location: 15:75045562-75047256 • Human CYP2B6 • F: […] • R: […] • Human CYP3A4 • F: […] • R: […]

[6] = CYP450 time-dependent inhibition, all isoenzymes together; format: in vitro ADME, human; conditions: all isoenzymes; +/− NADPH, with and without 30-min preincubation; read-out: Inhibition of CYP450 isoenzymes at 50 µM (maximum test concentration)
[7] = system: CYP450 isoenzymes (1A2, 2B6, 2C8, 2C9, 2C19, 2D6 and 3A4); assay: as above; format: in vitro ADME, human
CYP2C8 = target: T1, CYP2C8 (Homo sapiens, UniProt P10632); conditions: microsomes
T1 sequence (P10632 1-490): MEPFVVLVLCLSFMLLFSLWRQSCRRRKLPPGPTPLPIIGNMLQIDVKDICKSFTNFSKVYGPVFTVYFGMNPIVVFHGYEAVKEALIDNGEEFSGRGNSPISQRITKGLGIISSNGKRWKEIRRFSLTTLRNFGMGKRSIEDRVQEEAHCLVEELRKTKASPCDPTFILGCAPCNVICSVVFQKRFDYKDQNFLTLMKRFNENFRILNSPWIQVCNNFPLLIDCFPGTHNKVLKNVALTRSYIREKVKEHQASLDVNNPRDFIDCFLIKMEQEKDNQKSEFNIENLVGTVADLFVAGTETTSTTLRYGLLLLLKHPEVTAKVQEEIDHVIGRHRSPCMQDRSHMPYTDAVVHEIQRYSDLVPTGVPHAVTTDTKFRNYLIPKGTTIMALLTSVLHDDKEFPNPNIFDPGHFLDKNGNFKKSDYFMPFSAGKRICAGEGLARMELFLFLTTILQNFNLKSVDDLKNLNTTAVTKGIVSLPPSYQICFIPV

CYP2C9 = CYP2C9 (Homo sapiens, UniProt P11712); conditions: microsomes
CYP2D6 = CYP2D6 (Homo sapiens, UniProt P10635); conditions: microsomes
in vitro = conditions: Sprague-Dawley, rat, plasma, pH 7.4
Description: Samples were tested at 2 μM.
The supernatant was removed and incubated at 37 °C for at least 10 min before use. The pH of each matrix was checked and adjusted to pH 7.4 using 10% phosphoric acid or 1 N sodium hydroxide as necessary.
Test and control article stock solutions were spiked (1.5 µL) into matrix (0.749 mL) to a final assay concentration of 2 µM and mixed. […] These tubes were sealed and incubated at 37 °C with shaking.
The quenched samples were mixed briefly by vortexing and stored in a −20 °C freezer.
Sample plates were stored refrigerated until analysis.
The column was set to a temperature of 55 °C. […] The instrument was equipped with an electrospray ionization source (500 °C) operated in positive-ion mode.
Peak area ratios for IS-normalized test article and control article counts were used to calculate the percent remaining relative to the time zero (T0) value. As appropriate, results were plotted and further analyzed to calculate half-life (T1/2) values.
Mean peak ratios were used to calculate the percent remaining relative to the T0 value: % Remaining at Timex = (mean peak area ratio Tx/mean peak ratio T0) × 100.

[8] = Protein binding in cynomolgus monkey plasma (ultracentrifugation); conditions: plasma (K2EDTA), pH 7.4
[9] = system: cynomolgus monkey plasma proteins; assay: as above; conditions: Cynomolgus monkey plasma (K2EDTA); 2 μM; 2.5 h at 37 °C
[10] = read-out: CLint (L/hr/kg) (converted)
[11] = cryopreserved hepatocytes, read-out: % Remaining at 30 min

Sequence of CYP2D6 (P10635 whole entry): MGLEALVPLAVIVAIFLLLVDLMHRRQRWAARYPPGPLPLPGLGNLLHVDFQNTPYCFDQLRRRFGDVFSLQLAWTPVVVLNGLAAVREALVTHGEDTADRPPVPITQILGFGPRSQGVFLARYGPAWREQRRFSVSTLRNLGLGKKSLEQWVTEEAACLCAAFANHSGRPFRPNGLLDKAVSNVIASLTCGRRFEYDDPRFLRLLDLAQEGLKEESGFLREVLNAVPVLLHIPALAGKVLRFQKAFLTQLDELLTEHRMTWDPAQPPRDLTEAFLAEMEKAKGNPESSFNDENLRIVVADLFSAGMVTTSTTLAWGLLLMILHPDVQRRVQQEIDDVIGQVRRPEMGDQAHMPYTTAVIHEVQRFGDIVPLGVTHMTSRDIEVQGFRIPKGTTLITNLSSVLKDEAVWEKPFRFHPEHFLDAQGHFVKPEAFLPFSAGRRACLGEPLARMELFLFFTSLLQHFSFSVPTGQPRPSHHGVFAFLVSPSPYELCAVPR
Sequence of CYP2C9 (P11712 whole entry): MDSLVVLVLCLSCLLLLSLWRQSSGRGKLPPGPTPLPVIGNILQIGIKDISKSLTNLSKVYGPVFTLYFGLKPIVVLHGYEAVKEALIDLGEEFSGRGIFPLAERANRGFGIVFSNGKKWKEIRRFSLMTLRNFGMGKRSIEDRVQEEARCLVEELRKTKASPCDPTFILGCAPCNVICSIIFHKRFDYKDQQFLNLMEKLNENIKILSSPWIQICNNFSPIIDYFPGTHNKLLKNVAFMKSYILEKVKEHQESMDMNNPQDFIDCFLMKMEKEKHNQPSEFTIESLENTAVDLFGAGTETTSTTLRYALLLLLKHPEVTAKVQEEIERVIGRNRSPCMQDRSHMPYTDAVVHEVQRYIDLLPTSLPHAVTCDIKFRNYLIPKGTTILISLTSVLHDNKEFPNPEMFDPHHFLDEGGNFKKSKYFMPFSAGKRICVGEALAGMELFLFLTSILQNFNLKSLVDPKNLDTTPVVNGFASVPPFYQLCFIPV

LRKLRKRLLRLVGRQLEEFL [HM-10/10, LRKLRKRLLRLVGRQLEEFL]
CLint scaled ([1]; CD-1 mouse liver microsomes 0.5 mg protein/mL, 2 μM): 170 mL/min/kg | half-life at 2 µM ([1]; pooled liver microsomes, pH 7.4, CD-1 mouse liver microsomes 0.5 mg protein/mL): 32 min | remaining at 2 h, 2 µM ([1]; pooled liver microsomes, pH 7.4, CD-1 mouse liver microsomes 0.5 mg protein/mL, read-out: % Remaining at 120 min): 0.8% | CLint scaled [2, 10]: 2.83 L/h/kg | CLint scaled ([2]; read-out: CLint (mL/min/kg)): 2.83 L/h/kg | half-life at 2 µM ([2]; pooled liver microsomes, pH 7.4, Beagle dog liver microsomes 0.5 mg protein/mL): 33 min | remaining at 2 h, 2 µM ([2]; pooled liver microsomes, pH 7.4, Beagle dog liver microsomes 0.5 mg protein/mL, read-out: % Remaining at 120 min): 1.5% | half-life at 2 µM ([3]; cryopreserved hepatocytes): < 15 min | remaining at 0.5 h, 2 µM [3, 11]: 0.7% | CLint scaled ([3]; read-out: CLint (L/hr/kg)): > 65.5 L/h/kg | CLint scaled ([3]; read-out: CLint (mL/min/kg)): > 65.4 L/h/kg | half-life at 2 µM ([4]; cryopreserved hepatocytes): 10.7 min | remaining at 0.5 h, 2 µM [4, 11]: 16% | CLint scaled [4, 10]: 42 L/h/kg | CLint scaled ([4]; read-out: CLint (mL/min/kg)): 41.9 L/h/kg | CLint scaled ([5]; 2 μM): 465 mL/min/kg | half-life at 2 µM ([5]; cryopreserved hepatocytes): 12.1 min | remaining at 0.5 h, 2 µM [5, 11]: 18.5% | Fold Increase (mRNA Expression) Lot HH1086 (CYP1A2; 2 µM): 1.69 fold | Fold Increase (mRNA Expression) Lot HH1142 (CYP1A2; 2 µM): 2.24 fold | Fold Increase (mRNA Expression) Lot HH1144 (CYP1A2; 2 µM): 1.81 fold | Fold Increase (mRNA Expression) Mean of 3 Lots (CYP1A2; 2 µM): 1.91 fold | Comments (mRNA induction) (CYP1A2; 10 µM): Induction Observed | Fold Increase (mRNA Expression) Lot HH1086 (CYP1A2; 10 µM): 2.75 fold | Fold Increase (mRNA Expression) Lot HH1142 (CYP1A2; 10 µM): 3.24 fold | Fold Increase (mRNA Expression) Lot HH1144 (CYP1A2; 10 µM): 1.75 fold | Fold Increase (mRNA Expression) Mean of 3 Lots (CYP1A2; 10 µM): 2.58 fold | Comments (mRNA induction) (CYP1A2; 25 µM): Induction Observed | Fold Increase (mRNA Expression) Lot HH1086 (CYP1A2; 25 µM): 2.74 fold | Fold Increase (mRNA Expression) Lot HH1142 (CYP1A2; 25 µM): 3.01 fold | Fold Increase (mRNA Expression) Lot HH1144 (CYP1A2; 25 µM): 1.13 fold | Fold Increase (mRNA Expression) Mean of 3 Lots (CYP1A2; 25 µM): 2.29 fold | inhibition at 50 µM [6]: -26.4 to 42.2% | Inhibition of CYP450 isoenzymes at 50 µM (maximum test concentration) ([7]; all isoenzymes, +/− NADPH, with and without 30-min preincubation): No inhibition to minimal inhibition | Inhibition of CYP isozymes at 50 µM with pre-incubation in the presence of 1 mM NADPH ([7]; all isozymes, pooled human liver microsomes 0.1 mg/mL): less than 30% | Time-dependent inhibition (TDI) of CYP450 isoenzymes ([7]; up to 50 µM, all isoenzymes): no TDI | % Inhibition at 50 µM No PI + NADPH (CYP2C8): 18.7% | % Inhibition at 50 µM No PI − NADPH (CYP2C8): 14.0% | % Inhibition at 50 µM PI + NADPH (CYP2C8): 9.0% | % Inhibition at 50 µM PI − NADPH (CYP2C8): 11.4% | % Inhibition at 50 µM No PI + NADPH (CYP2C9): 8.6% | % Inhibition at 50 µM No PI − NADPH (CYP2C9): 0.4% | % Inhibition at 50 µM PI + NADPH (CYP2C9): 1.7% | % Inhibition at 50 µM PI − NADPH (CYP2C9): 0.5% | % Inhibition at 50 µM No PI + NADPH (CYP2D6): 6.0% | % Inhibition at 50 µM No PI − NADPH (CYP2D6): 17.2% | % Inhibition at 50 µM PI + NADPH (CYP2D6): 17.0% | % Inhibition at 50 µM PI − NADPH (CYP2D6): 19.7% | half-life at 2 µM (in vitro): 82.5 min | remaining at 2 h, 2 µM (in vitro): 36.3% | fraction unbound at 2.5 h, 2 µM ([8]; cynomolgus monkey): 0.736 ± 0.216 | remaining at 2.5 h, 2 µM ([8]; monkey): 25.9% | % Protein Bound Mean ± SD [9]: 26.4 ± 21.6% | % Protein Free Mean ± SD [9]: 73.6 ± 21.6%
